This is an account of results in patent US9012496B2, “Pharmaceutical compositions of (R)-1-(2,2-difluorobenzo[D][1,3]dioxol-5-yl)-N-(1-(2,3-dihydroxypropyl)-6-fluoro-2-(1-hydroxy-2-methylpropan-2-yl)-1H-indol-5-yl)cyclopropanecarboxamide and administration thereof” (Vertex Pharmaceuticals Incorported, priority 2012, dated 2015).

The target of this assay is T1, ΔF508-CFTR (Homo sapiens, UniProt P13569, DEL508-508).
T1 construct: expressed in transfected cells; host or cells: NIH3T3 mouse fibroblasts (optical membrane potential assay, whole-cell and single-channel recordings); Fisher rat epithelial (FRT) cells (Ussing chamber)
Put plainly: Assays for detecting and measuring ΔF508-CFTR correction properties (membrane potential optical assay; electrophysiological assays). The assay is classed as cell-based. From the text: Assays for Detecting and Measuring ΔF508-CFTR Correction Properties of Compounds
Membrane potential optical methods for assaying ΔF508-CFTR modulation properties of compounds.
The optical membrane potential assay utilized voltage-sensitive FRET sensors described by Gonzalez and Tsien (See Gonzalez, J. E. and R. Y. Tsien (1995) “Voltage sensing by fluorescence resonance energy transfer in single cells” Biophys J 69(4): 1272-80, and Gonzalez, J. E. and R. Y. Tsien (1997) “Improved indicators of cell membrane potential that use fluorescence resonance energy transfer” Chem Biol 4(4): 269-77) in combination with instrumentation for measuring fluorescence changes such as the Voltage/Ion Probe Reader (VIPR) (See, Gonzalez, J. E., K. Oades, et al. (1999) “Cell-based assays and instrumentation for screening ion-channel targets” Drug Discov Today 4(9): 431-439).
These voltage sensitive assays are based on the change in fluorescence resonant energy transfer (FRET) between the membrane-soluble, voltage-sensitive dye, DiSBAC2(3), and a fluorescent phospholipid, CC2-DMPE, which is attached to the outer leaflet of the plasma membrane and acts as a FRET donor. […] The changes in fluorescence emission were monitored using VIPR™ II, which is an integrated liquid handler and fluorescent detector designed to conduct cell-based screens in 96- or 384-well microtiter plates. […]

Bounds are passed on as bounds.

T1 sequence (P13569 with tags, fused parts or gaps DEL508-508): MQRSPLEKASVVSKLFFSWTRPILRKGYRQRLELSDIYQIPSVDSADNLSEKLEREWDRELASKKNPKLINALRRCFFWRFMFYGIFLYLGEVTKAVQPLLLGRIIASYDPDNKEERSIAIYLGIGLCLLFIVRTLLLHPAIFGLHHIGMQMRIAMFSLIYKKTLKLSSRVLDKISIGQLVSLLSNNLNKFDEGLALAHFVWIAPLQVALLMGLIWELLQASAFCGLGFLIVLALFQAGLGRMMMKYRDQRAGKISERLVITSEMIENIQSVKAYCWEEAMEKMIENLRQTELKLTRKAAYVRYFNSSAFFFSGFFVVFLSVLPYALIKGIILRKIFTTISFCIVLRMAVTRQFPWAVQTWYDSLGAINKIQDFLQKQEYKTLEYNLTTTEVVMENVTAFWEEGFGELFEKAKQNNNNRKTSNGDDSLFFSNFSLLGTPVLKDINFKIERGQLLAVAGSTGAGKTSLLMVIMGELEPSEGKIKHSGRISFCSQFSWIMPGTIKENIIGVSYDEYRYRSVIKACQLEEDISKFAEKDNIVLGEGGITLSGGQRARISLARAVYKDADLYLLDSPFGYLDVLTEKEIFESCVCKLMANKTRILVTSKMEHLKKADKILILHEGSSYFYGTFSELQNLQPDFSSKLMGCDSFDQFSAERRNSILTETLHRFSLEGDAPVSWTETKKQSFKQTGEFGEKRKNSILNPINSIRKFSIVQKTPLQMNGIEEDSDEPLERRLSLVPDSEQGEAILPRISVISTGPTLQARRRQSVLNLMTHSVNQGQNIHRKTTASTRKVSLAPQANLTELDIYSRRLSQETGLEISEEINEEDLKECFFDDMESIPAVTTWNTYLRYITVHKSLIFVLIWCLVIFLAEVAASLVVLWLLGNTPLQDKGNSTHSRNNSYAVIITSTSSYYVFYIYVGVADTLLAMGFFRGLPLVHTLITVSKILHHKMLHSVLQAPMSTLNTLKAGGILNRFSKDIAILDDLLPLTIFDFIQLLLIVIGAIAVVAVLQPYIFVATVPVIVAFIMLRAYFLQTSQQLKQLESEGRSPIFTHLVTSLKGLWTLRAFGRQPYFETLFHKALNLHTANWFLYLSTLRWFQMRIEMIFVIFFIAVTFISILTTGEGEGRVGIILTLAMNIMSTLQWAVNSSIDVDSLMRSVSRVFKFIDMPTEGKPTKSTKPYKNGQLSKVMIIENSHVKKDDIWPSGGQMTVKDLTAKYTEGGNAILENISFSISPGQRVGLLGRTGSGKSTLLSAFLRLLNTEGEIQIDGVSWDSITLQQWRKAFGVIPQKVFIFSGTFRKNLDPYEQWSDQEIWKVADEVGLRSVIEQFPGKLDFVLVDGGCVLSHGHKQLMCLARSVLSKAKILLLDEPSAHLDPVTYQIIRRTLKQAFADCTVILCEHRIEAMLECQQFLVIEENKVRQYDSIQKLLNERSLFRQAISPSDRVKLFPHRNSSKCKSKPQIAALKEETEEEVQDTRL

With `CC(C)(CO)c1cc2cc(NC(=O)C3(c4ccc5c(c4)OC(F)(F)O5)CC3)c(F)cc2n1C[C@@H](O)CO` [Compound 1, (R)-1-(2,2-difluorobenzo[d][1,3]dioxol-5-yl)-N-(1-(2,3-dihydroxypropyl)-6-fluoro-2-(1-hydroxy-2-methylpropan-2-yl)-1H-indol-5-yl)cyclopropanecarboxamide], where the note is “NIH3T3 mouse fibroblasts stably expressing ΔF508-CFTR, read-out: BinnedEC50”, the EC50 was no more than 2000 nM. For the same compound, where the note is “PercentActivity bins”, the BinnedMaxEfficacy result is recorded as “+++ (100.0 < +++)”.
